Measured values: US8268814B2, “Substituted sulfonamide compounds” (Gruenenthal GmbH, priority 2008, dated 2012)

What was measured:
[1] = molecular target: T1, B1R receptor of the rat (rB1R) (Rattus norvegicus, UniProt P97583); test: Functional FLIPR Ca2+ assay on the bradykinin 1 receptor, rat (rB1R CHO K1 cells); type: cell-based; settings: test substance 10 μM; CHO K1 cells transfected with rat B1R gene; agonist Des-Arg9-bradykinin at EC80; % inhibition compared with maximum achievable inhibition; read-out: B1R antagonism, rat [10 μM] % inhibition
T1 construct: expressed in transfected cells; host or cells: CHO K1 cells (Chinese hamster ovary), stably transfected
T1 sequence (P97583 1-337): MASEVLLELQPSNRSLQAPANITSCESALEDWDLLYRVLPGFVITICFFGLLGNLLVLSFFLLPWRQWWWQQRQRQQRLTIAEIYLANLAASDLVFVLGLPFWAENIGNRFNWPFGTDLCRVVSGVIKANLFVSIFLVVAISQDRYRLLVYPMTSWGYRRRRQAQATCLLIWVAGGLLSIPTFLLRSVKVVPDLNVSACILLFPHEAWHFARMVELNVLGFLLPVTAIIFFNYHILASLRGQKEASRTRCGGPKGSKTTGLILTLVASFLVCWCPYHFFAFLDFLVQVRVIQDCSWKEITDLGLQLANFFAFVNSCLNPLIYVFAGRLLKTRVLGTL
How it was run: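 Stably transfected CHO K1 cells expressing human or rat B1R, Fluo-4-loaded, Ca2+ influx read by FLIPR (peak fluorescence). Compounds (10 μM for % activation) preincubated 10-20 min, then EC80 agonist added: Lys-Des-Arg9-bradykinin for human, Des-Arg9-bradykinin for rat; % inhibition versus maximal inhibition, IC50 from concentration series.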

[2] = molecular target: T2, human B1R receptor (hB1R) (Homo sapiens, UniProt P46663); test: Functional FLIPR Ca2+ assay on the bradykinin 1 receptor, human (hB1R CHO K1 cells); type: cell-based; settings: test substance 10 μM; CHO K1 cells transfected with human B1R gene; agonist Lys-Des-Arg9-bradykinin at EC80; % inhibition compared with maximum achievable inhibition; read-out: B1R antagonism, human (10 μM] % inhibition
T2 construct: expressed in transfected cells; host or cells: CHO K1 cells (Chinese hamster ovary), stably transfected
T2 sequence (P46663 1-353): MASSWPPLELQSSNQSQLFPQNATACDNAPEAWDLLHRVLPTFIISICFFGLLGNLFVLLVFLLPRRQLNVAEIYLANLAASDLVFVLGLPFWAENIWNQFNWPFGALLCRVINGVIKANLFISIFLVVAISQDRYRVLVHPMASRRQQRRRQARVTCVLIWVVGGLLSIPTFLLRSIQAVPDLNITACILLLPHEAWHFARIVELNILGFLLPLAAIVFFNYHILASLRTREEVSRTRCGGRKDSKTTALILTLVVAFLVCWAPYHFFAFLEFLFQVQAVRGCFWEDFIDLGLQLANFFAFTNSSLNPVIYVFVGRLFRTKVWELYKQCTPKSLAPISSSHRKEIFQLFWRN
Procedure: The agonistic or antagonistic action of substances can be quantified on the bradykinin 1 receptor (B1R) of the human and rat species with ectopically expressing cell lines (CHO K1 cells) and with the aid of a Ca^2+-sensitive dyestuff (Fluo-4) in a fluorescent imaging plate reader (FLIPR). The figure in % activation is based on the Ca^2+ signal after addition of Lys-Des-Arg^9-bradykinin (0.5 nM) or Des-Arg^9-bradykinin (100 nM). Antagonists lead to a suppression of the Ca^2+ inflow after addition of the agonist. % inhibition compared with the maximum achievable inhibition is stated.
The agonistic or antagonistic action of substances can be determined on the bradykinin 1 receptor (B1R) of the human and rat species with the following assay. In accordance with this assay, the Ca^2+ inflow through the channel is quantified with the aid of a Ca^2+-sensitive dyestuff (type Fluo-4, Molecular Probes Europe BV, Leiden, Holland) in a fluorescent imaging plate reader (FLIPR, Molecular Devices, Sunnyvale, USA).
Chinese hamster ovary cells (CHO K1 cells) transfected stably with the human B1R gene (hB1R cells) or the B1R gene of the rat (rB1R cells) are used. For functional studies, these cells are plated out on black 96-well plates with a clear base (BD Biosciences, Heidelberg, Germany or Greiner, Frickenhausen, Germany) in a density of 20,000-35,000 cells/well. The cells are left overnight at 37° C. and 5% CO2 in culture medium (hB1R cells: Nutrient Mixture Ham's F12, Gibco Invitrogen GmbH, Karlsruhe, Germany or DMEM, Sigma-Aldrich, Taufkirchen, Germany; rB1R cells: D-MEM/F12, Gibco Invitrogen GmbH, Karlsruhe, Germany) with 10 vol. % FBS (foetal bovine serum, Gibco Invitrogen GmbH, Karlsruhe, Germany or PAN Biotech GmbH, Aidenbach, Germany). On the following day, the cells are loaded for 60 min at 37° C. with 2.13 μM Fluo-4 (Molecular Probes Europe BV, Leiden, Holland) in HBSS buffer (Hank's buffered saline solution, Gibco Invitrogen GmbH, Karlsruhe, Germany) with 2.5 mM probenecid (Sigma-Aldrich, Taufkirchen, Germany) and 10 mM HEPES (Sigma-Aldrich, Taufkirchen, Germany). The plates are then washed 2× with HBSS buffer, and HBSS buffer which additionally contains 0.1% BSA (bovine serum albumin; Sigma-Aldrich, Taufkirchen, Germany), 5.6 mM glucose and 0.05% gelatine (Merck KgaA, Darmstadt, Germany) is added. After a further incubation of 20 minutes at room temperature, the plates are inserted into the FLIPR for the Ca^2+ measurement.
Alternatively, the plates are washed with buffer A (15 mM HEPES, 80 mM NaCl, 5 mM KCl, 1.2 mM CaCl2, 0.7 mM MgSO4, 2 g/l glucose, 2.5 mM probenecid), buffer A is added and the plates are loaded with 2.5 μM Fluo-4 and 0.025% Pluronic F127 (Sigma-Aldrich, Taufkirchen, Germany). Thereafter, the cells are washed 2× with buffer A and incubated for 30 minutes with buffer A, which additionally contains 0.05% BSA and 0.05% gelatine, at room temperature and thereafter inserted into the FLIPR for the Ca^2+ measurement. The Ca^2+-dependent fluorescence is measured here before and after addition of substances (λex=488 nm, λem=540 nm). Quantification is by measurement of the highest fluorescence intensity (FC, fluorescence counts) over time.
The FLIPR protocol consists of 2 additions of substance. Test substances (10 μM) are first pipetted on to the cells and the Ca^2+ inflow is compared with the control (hB1R: Lys-Des-Arg^9-bradykinin >=50 nM; rB1R: Des-Arg^9-bradykinin 10 μM). This gives the figure in % activation based on the Ca^2+ signal after addition of Lys-Des-Arg^9-bradykinin (>=50 nM) or Des-Arg^9-bradykinin (10 μM). After incubation for 10-20 minutes, Lys-Des-Arg^9-bradykinin (hB1R) or Des-Arg^9-bradykinin (rB1R) in the concentration of the EC80 is applied and the inflow of Ca^2+ is likewise determined. Antagonists lead to a suppression of the Ca^2+ inflow. % inhibition compared with the maximum achievable inhibition is calculated. In order to determine the IC50 value, the substances are added in various concentrations. […]

| inhibition at 10 µM [1] | inhibition at 10 µM [2] | Structure (SMILES) |
| --- | --- | --- |
| 99% | 100% | COc1cc(C)c(S(=O)(=O)N(C)CCOCC(=O)N2CCc3nc(Cc4ccncc4)sc3C2)c(C)c1 [Example 39, 4-methoxy-N,2,6-trimethyl-N-(2-(2-oxo-2-(2-(pyridin-4-ylmethyl)-6,7-dihydrothiazolo[5,4-c]pyridin-5(4H)-yl)ethoxy)ethyl)benzenesulfonamide] |
| 101% | 100% | COc1cc(C)c(S(=O)(=O)N2CCCCC2COCC(=O)N2CCc3onc(-c4ccncc4)c3C2)c(C)c1 (centres unmarked) [Example 02, 2-((1-(4-methoxy-2,6-dimethylphenylsulfonyl)piperidin-2-yl)methoxy)-1-(3-(pyridin-4-yl)-6,7-dihydroisoxazolo[4,5-c]pyridin-5(4H)-yl)ethanone] |
| 105% | 91% | CCC1c2ccsc2CCN1C(=O)CCCC1CCCCN1S(=O)(=O)c1c(C)cc(OC)cc1C (centres unmarked) [Example 23, 1-(4-Ethyl-6,7-dihydrothieno[3,2-c]pyridin-5(4H)-yl)-4-(1-(4-methoxy-2,6-dimethylphenylsulfonyl)piperidin-2-yl)butan-1-one] |
| 104% | 69% | COc1cc(C)c(S(=O)(=O)N2CCCCC2COCC(=O)N2CCc3sccc3C2c2ccc(C)cc2)c(C)c1 (centres unmarked) [Example 07, 2-((1-(4-methoxy-2,6-dimethylphenylsulfonyl)piperidin-2-yl)methoxy)-1-(4-p-tolyl-6,7-dihydrothieno[3,2-c]pyridin-5(4H)-yl)ethanone] |
| 107% | 100% | COc1cc(C)c(S(=O)(=O)N2CCCC[C@H]2COCC(=O)N2CCc3sc(CN4CCCC4)cc3C2)c(C)c1 [Example 62, 2-[[(2S)-1-[(4-methoxy-2,6-dimethyl-phenyl)sulfonyl]-piperidin-2-yl]-methoxy]-1-[2-(pyrrolidin-1-yl-methyl)-4,5,6,7-tetrahydro-thieno[3,2-c]pyridin-5-yl]-ethanone] |
| 101% | 99% | COc1cc(C)c(S(=O)(=O)N2CCCCC2COCC(=O)N2CCc3onc(CN4CCOCC4)c3C2)c(C)c1 (centres unmarked) [Example 29, 2-((1-(4-methoxy-2,6-dimethylphenylsulfonyl)piperidin-2-yl)methoxy)-1-(3-(morpholinomethyl)-6,7-dihydroisoxazolo[4,5-c]pyridin-5(4H)-yl)ethanone] |
| 101% | 100% | COc1cc(C)c(S(=O)(=O)N2CCCCC2CCCC(=O)N2CCc3sc(CN4CCN(C)CC4)cc3C2)c(C)c1 (centres unmarked) [Example 47, 4-(1-(4-methoxy-2,6-dimethylphenylsulfonyl)piperidin-2-yl)-1-(2-((4-methylpiperazin-1-yl)methyl)-6,7-dihydrothieno[3,2-c]pyridin-5(4H)-yl)butan-1-one] |
| 102% | 100% | CN1CCN(Cc2cc3c(s2)CCN(C(=O)CC(NS(=O)(=O)c2ccc4ccccc4c2)c2ccccc2)C3)CC1 (racemic) [Example 46, N-(3-(2-((4-methylpiperazin-1-yl)methyl)-6,7-dihydrothieno[3,2-c]pyridin-5(4H)-yl)-3-oxo-1-phenylpropyl)naphthalene-2-sulfonamide] |
| 99% | 98% | COc1cc(C)c(S(=O)(=O)N2CCCCC2CCC(=O)N2CCc3sc(CN4CCN(C)CC4)cc3C2)c(C)c1 (centres unmarked) [Example 45, 3-(1-(4-methoxy-2,6-dimethylphenylsulfonyl)piperidin-2-yl)-1-(2-((4-methylpiperazin-1-yl)methyl)-6,7-dihydrothieno[3,2-c]pyridin-5(4H)-yl)propan-1-one] |
| 106% | 99% | COc1cc(C)c(S(=O)(=O)N2CCC[C@H]2COCC(=O)N2CCc3sc(CN4CCCCC4)cc3C2)c(C)c1 [Example 63, 2-[[(2S)-1-[(4-methoxy-2,6-dimethyl-phenyl)sulfonyl]-pyrrolidin-2-yl]-methoxy]-1-[2-(piperidin-1-yl-methyl)-4,5,6,7-tetrahydro-thieno[3,2-c]pyridin-5-yl]-ethanone] |
